These are literature values, as cited in patent US20050276865A1, “Peroxide compounds for the prevention and treatment of sexual dysfunction in humans” (priority 2004, published 2005).

The subject of one data set is men with ED. Particulars: injection into the corpus cavernosum (Montorsi et al. 1997).
Test in data set [1]: not given
The source holds these as a separate data set.

For the compound `CCCCC[C@H](O)/C=C/[C@H]1[C@H](O)CC(=O)[C@@H]1CCCCCCC(=O)O` [prostaglandin E1], in the data set on men with ED, the “Men who achieved improved spontaneous erections and required less frequent injections” value is 28%.

As to `NC(N)=O.OO` [Carbamide peroxide, carbamide peroxide], the Solubility in water entry is “water-soluble”. In addition, under “aqueous medium”, the “Stability in aqueous medium” value was “highly unstable”. In data set [1] (NTF Chemical Repository), the Irritancy as reported entry is recorded as “irritant”. Also, the “Toxicity and carcinogenicity concerns” value in data set [1] (according to many studies (Haywood et al. 1991)) is recorded as “unfounded”.
